Results reported in patent US11447465B2, “Pharmaceutical compounds for treatment of medical disorders” (Achillion Pharmaceuticals, Inc., priority 2017, dated 2022).

Target: Human Factor D (Homo sapiens (Human), UniProt P00746)
Experiment: Human Factor D Assay
Type: biochemical
Conditions: Table 7; read-out: IC5 (Stars)
Method in brief: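 Serum-purified human factor D (80 nM final) preincubated with compound 5 min at room temperature in 50 mM Tris, 1 M NaCl, pH 7.5. Z-L-Lys-SBzl and DTNB added at 100 μM each; A405 followed every 30 s for 30 min. IC50 by nonlinear regression of rates.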

Sequence of Human Factor D (P00746 26-253): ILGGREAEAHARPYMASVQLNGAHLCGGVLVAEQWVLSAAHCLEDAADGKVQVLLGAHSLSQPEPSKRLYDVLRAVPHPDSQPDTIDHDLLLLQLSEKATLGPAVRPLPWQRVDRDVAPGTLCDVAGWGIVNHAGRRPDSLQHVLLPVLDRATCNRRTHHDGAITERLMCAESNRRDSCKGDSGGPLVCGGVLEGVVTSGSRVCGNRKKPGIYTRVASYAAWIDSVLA

Compound	IC50 [nM]
COc1ncc(-c2cc(CC(=O)N3[C@H](C(=O)Nc4nc(Br)ccc4C)C[C@@]4(C)C[C@@H]34)cc(-c3cnc(OC)nc3)c2)cn1 [Compound T-109, (1R,3S,5R)-2-(2-(3,5-bis(2-methoxypyrimidin-5-yl)phenyl)acetyl)-N-(6-bromo-3-methylpyridin-2-yl)-5-methyl-2-azabicyclo[3.1.0]hexane-3-carboxamide]	> 10000
COc1ncc(-c2cc(CC(=O)N3C[C@H](F)C[C@H]3C(=O)Nc3cccc(-c4ccccc4Cl)c3F)cc(-c3cnc(OC)nc3)c2)cn1 [Compound T-110, (2S,4R)-1-(2-(3,5-bis(2-methoxypyrimidin-5-yl)phenyl)acetyl)-N-(2′-chloro-2-fluoro-[1,1′-biphenyl]-3-yl)-4-fluoropyrrolidine-2-carboxamide]	> 10000
Cc1ncc(-c2cc(CC(=O)N3C[C@H](F)C[C@H]3C(=O)Nc3cccc(Br)n3)cc(C(N)=O)c2)cn1 [Compound T-111, (2S,4R)-N-(6-bromopyridin-2-yl)-1-(2-(3-carbamoyl-5-(2-methylpyrimidin-5-yl)phenyl)acetyl)-4-fluoropyrrolidine-2-carboxamide]	1000 to 10000
Cc1ncc(-c2cc(CC(=O)N3C[C@H](F)C[C@H]3C(=O)Nc3cccc(-c4ccccc4Cl)c3F)cc(C(N)=O)c2)cn1 [Compound T-112, (2S,4R)-1-(2-(3-carbamoyl-5-(2-methylpyrimidin-5-yl)phenyl)acetyl)-N-(2′-chloro-2-fluoro-[1,1′-biphenyl]-3-yl)-4-fluoropyrrolidine-2-carboxamide]	< 1000
Cc1ncc(-c2cc(CC(=O)N3[C@H](C(=O)Nc4nc(Br)ccc4C)C[C@@]4(C)C[C@@H]34)cc(C(N)=O)c2)cn1 [Compound T-113, (1R,3S,5R)-N-(6-bromo-3-methylpyridin-2-yl)-2-(2-(3-carbamoyl-5-(2-methylpyrimidin-5-yl)phenyl)acetyl)-5-methyl-2-azabicyclo[3.1.0]hexane-3-carboxamide]	1000 to 10000
Cc1ncc(-c2cc(C#N)cc(CC(=O)N3C[C@H](F)C[C@H]3C(=O)Nc3cccc(Br)n3)c2)cn1 [Compound T-114, (2S,4R)-N-(6-bromopyridin-2-yl)-1-(2-(3-cyano-5-(2-methylpyrimidin-5-yl)phenyl)acetyl)-4-fluoropyrrolidine-2-carboxamide]	1000 to 10000
Cc1ncc(-c2cc(C#N)cc(CC(=O)N3[C@H](C(=O)Nc4nc(Br)ccc4C)C[C@@]4(C)C[C@@H]34)c2)cn1 [Compound T-115, (1R,3S,5R)-N-(6-bromo-3-methylpyridin-2-yl)-2-(2-(3-cyano-5-(2-methylpyrimidin-5-yl)phenyl)acetyl)-5-methyl-2-azabicyclo[3.1.0]hexane-3-carboxamide]	1000 to 10000
Cc1ncc(-c2cc(C#N)cc(CC(=O)N3C[C@H](F)C[C@H]3C(=O)Nc3cccc(-c4ccccc4Cl)c3F)c2)cn1 [Compound T-116, (2S,4R)-N-(2′-chloro-2-fluoro-[1,1′-biphenyl]-3-yl)-1-(2-(3-cyano-5-(2-methylpyrimidin-5-yl)phenyl)acetyl)-4-fluoropyrrolidine-2-carboxamide]	< 1000
C#CCNC(=O)c1nn(CC(=O)N2[C@H](C(=O)Nc3nc(Br)ccc3C)C[C@@]3(C)C[C@@H]23)c2ccc(-c3cnc(C)nc3)cc12 [Compound T-121, 1-(2-((1R,3S,5R)-3-((6-bromo-3-methylpyridin-2-yl)carbamoyl)-5-methyl-2-azabicyclo[3.1.0]hexan-2-yl)-2-oxoethyl)-5-(2-methylpyrimidin-5-yl)-N-(prop-2-yn-1-yl)-1H-indazole-3-carboxamide]	< 1000
Cc1ccc(Br)nc1NC(=O)[C@@H]1C[C@@]2(CNC(=O)COCCOCCNC(=O)COCCOCCNC(=O)CC[C@H](NC(=O)CCCCCCCCCCCCCCCCC(=O)O)C(=O)O)C[C@H]2N1C(=O)Cn1nc(C(N)=O)c2ccc(C(=O)NS(=O)(=O)C3CC3)cc21 [Compound T-126, (S)-1-((1R,3S,5R)-3-((6-bromo-3-methylpyridin-2-yl)carbamoyl)-2-(2-(3-carbamoyl-6-((cyclopropylsulfonyl)carbamoyl)-1H-indazol-1-yl)acetyl)-2-azabicyclo[3.1.0]hexan-5-yl)-24-carboxy-3,12,21,26-tetraoxo-5,8,14,17-tetraoxa-2,11,20,25-tetraazatritetracontan-43-oic acid]	< 1000
CC(=O)c1nn(CC(=O)N2[C@H](C(=O)Nc3nc(Br)ccc3C)C[C@@]3(CNC(=O)COCCOCCNC(=O)COCCOCCNC(=O)CCCCCCCCCCCCCCCCC(=O)O)C[C@@H]23)c2ccc(OC(=O)NC3CC3)cc12 [Compound T-128, 1-((1R,3S,5R)-2-(2-(3-acetyl-5-((cyclopropylcarbamoyl)oxy)-1H-indazol-1-yl)acetyl)-3-((6-bromo-3-methylpyridin-2-yl)carbamoyl)-2-azabicyclo[3.1.0]hexan-5-yl)-3,12,21-trioxo-5,8,14,17-tetraoxa-2,11,20-triazaoctatriacontan-38-oic acid]	< 1000
COC(=O)c1cc2c(cc1-c1cnc(C)nc1)c(C(C)=O)nn2CC(=O)N1[C@H](C(=O)Nc2nc(Br)ccc2C)C[C@@]2(C)C[C@@H]12 [Compound T-129, methyl 3-acetyl-1-(2-((1R,3S,5R)-3-((6-bromo-3-methylpyridin-2-yl)carbamoyl)-5-methyl-2-azabicyclo[3.1.0]hexan-2-yl)-2-oxoethyl)-5-(2-methylpyrimidin-5-yl)-1H-indazole-6-carboxylate]	< 1000
CC(=O)c1nn(CC(=O)N2C[C@H](F)C[C@H]2C(=O)Nc2nc(Br)ccc2C)c2cc(OCP(=O)(O)O)ccc12 [Compound T-130, (((3-acetyl-1-(2-((2S,4R)-2-((6-bromo-3-methylpyridin-2-yl)carbamoyl)-4-fluoropyrrolidin-1-yl)-2-oxoethyl)-1H-indazol-6-yl)oxy)methyl)phosphonic acid]	< 1000
CC(=O)c1nn(CC(=O)N2C[C@H](F)C[C@H]2C(=O)NCc2cccc(Cl)c2F)c2cc(OCP(=O)(O)O)ccc12 [Compound T-131, (((3-acetyl-1-(2-((2S,4R)-2-((3-chloro-2-fluorobenzyl)carbamoyl)-4-fluoropyrrolidin-1-yl)-2-oxoethyl)-1H-indazol-6-yl)oxy)methyl)phosphonic acid]	< 1000
CC(=O)c1nn(CC(=O)N2[C@H](C(=O)Nc3nc(Br)ccc3C)C[C@@]3(C)C[C@@H]23)c2cc(OCP(=O)(O)O)ccc12 [Compound T-132, (((3-acetyl-1-(2-((1R,3S,5R)-3-((6-bromo-3-methylpyridin-2-yl)carbamoyl)-5-methyl-2-azabicyclo[3.1.0]hexan-2-yl)-2-oxoethyl)-1H-indazol-6-yl)oxy)methyl)phosphonic acid]	< 1000

The next lines start with the values.

IC50 [nM]	Compound
> 10000	Cc1ncc(-c2cc(CC(=O)N3[C@H](C(=O)Nc4nc(Br)ccc4C)C[C@@]4(C)C[C@@H]34)cc(-c3cnc(O)nc3)c2)cn1 [Compound T-117, (1R,3S,5R)-N-(6-bromo-3-methylpyridin-2-yl)-2-(2-(3-(2-hydroxypyrimidin-5-yl)-5-(2-methylpyrimidin-5-yl)phenyl)acetyl)-5-methyl-2-azabicyclo[3.1.0]hexane-3-carboxamide]
> 10000	Cc1ncc(-c2cc(CC(=O)N3C[C@H](F)C[C@H]3C(=O)Nc3cccc(-c4ccccc4Cl)c3F)cc(-c3cnc(O)nc3)c2)cn1 [Compound T-118, (2S,4R)-N-(2′-chloro-2-fluoro-[1,1′-biphenyl]-3-yl)-4-fluoro-1-(2-(3-(2-hydroxypyrimidin-5-yl)-5-(2-methylpyrimidin-5-yl)phenyl)acetyl)pyrrolidine-2-carboxamide]
1000 to 10000	Cc1ncc(-c2cc(CC(=O)N3C[C@H](F)C[C@H]3C(=O)Nc3cccc(-c4ccccc4Cl)c3F)cc(OCC(=O)O)c2)cn1 [Compound T-120, 2-(3-(2-((2S,4R)-2-((2′-chloro-2-fluoro-[1,1′-biphenyl]-3-yl)carbamoyl)-4-fluoropyrrolidin-1-yl)-2-oxoethyl)-5-(2-methylpyrimidin-5-yl)phenoxy)acetic acid]
< 1000	CC(=O)c1nn(CC(=O)N2C(C(=O)Nc3nc(Br)ccc3C)C[C@@]3(Cn4cc(C5CC5)nn4)C[C@@H]23)c2cnccc12 (stereo partly drawn) [Compound T-139, (1R,3S,5R)-2-(2-(3-acetyl-1H-pyrazolo[3,4-c]pyridin-1-yl)acetyl)-N-(6-bromo-3-methylpyridin-2-yl)-5-((4-cyclopropyl-1H-1,2,3-triazol-1-yl)methyl)-2-azabicyclo[3.1.0]hexane-3-carboxamide]
1000 to 10000	COc1cc(CC(=O)N2[C@H](C(=O)Nc3nc(Br)ccc3C)C[C@@]3(C)C[C@@H]23)cc(-c2cnc(OC)nc2)c1 [Compound T-153, (1R,3S,5R)-N-(6-bromo-3-methylpyridin-2-yl)-2-(2-(3-methoxy-5-(2-methoxypyrimidin-5-yl)phenyl)acetyl)-5-methyl-2-azabicyclo[3.1.0]hexane-3-carboxamide]
1000 to 10000	Cc1ccc(Br)nc1NC(=O)[C@@H]1C[C@@]2(C)C[C@H]2N1C(=O)Cc1ccc2[nH]nc(Cl)c2c1 [Compound T-155, (1R,3S,5R)-N-(6-bromo-3-methylpyridin-2-yl)-2-(2-(3-chloro-1H-indazol-5-yl)acetyl)-5-methyl-2-azabicyclo[3.1.0]hexane-3-carboxamide]
1000 to 10000	Cc1ccc(Br)nc1NC(=O)[C@@H]1C[C@@]2(C)C[C@H]2N1C(=O)Cc1ccc2[nH]nc(C(=O)O)c2c1 [Compound T-158, 5-(2-((1R,3S,5R)-3-((6-bromo-3-methylpyridin-2-yl)carbamoyl)-5-methyl-2-azabicyclo[3.1.0]hexan-2-yl)-2-oxoethyl)-1H-indazole-3-carboxylic acid]
1000 to 10000	Cc1ncc(-c2cc(CC(=O)N3C[C@H](F)C[C@H]3C(=O)Nc3cccc(Br)n3)cc(C(N)=O)c2)cn1 [Compound T-167, (2S,4R)-N-(6-bromopyridin-2-yl)-1-(2-(3-carbamoyl-5-(2-methylpyrimidin-5-yl)phenyl)acetyl)-4-fluoropyrrolidine-2-carboxamide]
